How the values were obtained:
[1] = test system: barnyardgrass (Echinochloa crus-galli); test: Test A preemergence, visual injury rating 0-100 (0 no effect, 100 complete control); assay type: in vivo
Source text: (§1) Seeds of plant species selected from barnyardgrass (Echinochloa crus-galli), kochia (Kochia scoparia), ragweed (common ragweed, Ambrosia elatior), ryegrass, Italian (Italian ryegrass, Lolium multiflorum), foxtail, giant (giant foxtail, Setaria faberii), foxtail, green (green foxtail, Setaria viridis), and pigweed (Amaranthus retroflexus) were planted into a blend of loam soil and sand and treated preemergence with a directed soil spray using test chemicals formulated in a non-phytotoxic solvent mixture which included a surfactant.
(§2) At the same time, plants selected from these weed species and also wheat (Triticum aestivum), corn (Zea mays), blackgrass (Alopecurus myosuroides), and galium (catchweed bedstraw, Galium aparine) were planted in pots containing the same blend of loam soil and sand and treated with postemergence applications of test chemicals formulated in the same manner. Plants ranged in height from 2 to 10 cm and were in the one- to two-leaf stage for the postemergence treatment. Treated plants and untreated controls were maintained in a greenhouse for approximately 10 days, after which time all treated plants were compared to untreated controls and visually evaluated for injury. […] A dash (-) response means no test result.

rice (Oryza sativa) = test: Test B flooded paddy test, visual rating 0-100 (0 no effect, 100 complete control); conditions: Flood, 250 g ai/ha, applied to paddy water, rated after 13 to 15 days
[2] = test system: ryegrass, Italian (Italian ryegrass, Lolium multiflorum); test: Test A preemergence, visual injury rating 0-100; assay type: in vivo
Source text: as §1, §2

[3] = test system: foxtail, giant (giant foxtail, Setaria faberii); test: Test A preemergence, visual injury rating 0-100; assay type: in vivo
Source text: as §1, §2

kochia (Kochia scoparia) [4] = test: Test A preemergence, visual injury rating 0-100; assay type: in vivo
Source text: as §1, §2

[5] = test system: ragweed (common ragweed, Ambrosia elatior); test: Test A preemergence, visual injury rating 0-100; assay type: in vivo
Source text: as §1, §2

[6] = test system: pigweed (Amaranthus retroflexus); test: Test A preemergence, visual injury rating 0-100; assay type: in vivo
Source text: as §1, §2

[7] = test system: wheat (Triticum aestivum); test: Test A postemergence, visual injury rating 0-100; assay type: in vivo; conditions: 0 to 100 scale
Source text: as §1, §2

[8] = test system: galium (catchweed bedstraw, Galium aparine); test: Test A postemergence, visual injury rating 0-100; assay type: in vivo; conditions: 0 to 100 scale
Source text: as §1, §2

corn (Zea mays) = test: Test A postemergence, visual injury rating 0-100; assay type: in vivo; conditions: 0 to 100 scale
Source text: as §1, §2

[9] = test system: ryegrass, Italian (Italian ryegrass, Lolium multiflorum); test: Test A postemergence, visual injury rating 0-100; assay type: in vivo; conditions: 0 to 100 scale
Source text: as §1, §2

[10] = test system: foxtail, giant (giant foxtail, Setaria faberii); test: Test A postemergence, visual injury rating 0-100; assay type: in vivo; conditions: 0 to 100 scale
Source text: as §1, §2

[11] = test system: barnyardgrass (Echinochloa crus-galli); test: Test A postemergence, visual injury rating 0-100; assay type: in vivo; conditions: 0 to 100 scale
Source text: as §1, §2

kochia (Kochia scoparia) [12] = test: Test A postemergence, visual injury rating 0-100; assay type: in vivo; conditions: 0 to 100 scale
Source text: as §1, §2

[13] = test system: ragweed (common ragweed, Ambrosia elatior); test: Test A postemergence, visual injury rating 0-100; assay type: in vivo; conditions: 0 to 100 scale
Source text: as §1, §2

[14] = test system: blackgrass (Alopecurus myosuroides); test: Test A postemergence, visual injury rating 0-100; assay type: in vivo; conditions: 0 to 100 scale
Source text: as §1, §2

[15] = test system: pigweed (Amaranthus retroflexus); test: Test A postemergence, visual injury rating 0-100; assay type: in vivo; conditions: 0 to 100 scale
Source text: as §1, §2

[16] = test system: barnyardgrass (Echinochloa crus-galli); test: Test B flooded paddy test, visual rating 0-100; conditions: Flood, 250 g ai/ha, applied to paddy water, rated after 13 to 15 days
[17] = test system: ducksalad (Heteranthera limosa); test: Test B flooded paddy test, visual rating 0-100; conditions: Flood, 250 g ai/ha, applied to paddy water, rated after 13 to 15 days

| Structure (SMILES) | Barnyardgrass plant response rating (0 to 100 scale) ([1]; 125 g ai/ha) | Rice plant response rating (0 to 100 scale) (rice (Oryza sativa)) | Foxtail, Giant plant response rating (0 to 100 scale) ([3]; 125 g ai/ha) | Kochia plant response rating (0 to 100 scale) (kochia (Kochia scoparia) [4]; 125 g ai/ha) | Ragweed plant response rating (0 to 100 scale) ([5]; 125 g ai/ha) | Pigweed plant response rating (0 to 100 scale) ([6]; 125 g ai/ha) | Wheat plant response rating ([7]; 125 g ai/ha) | Wheat plant response rating ([7]; 500 g ai/ha) | Galium plant response rating ([8]; 125 g ai/ha) | Galium plant response rating ([8]; 500 g ai/ha) | Corn plant response rating (corn (Zea mays); 125 g ai/ha) | Corn plant response rating (corn (Zea mays); 500 g ai/ha) | Ryegrass, Italian plant response rating ([9]; 125 g ai/ha) | Ryegrass, Italian plant response rating ([9]; 500 g ai/ha) | Foxtail, Giant plant response rating ([10]; 125 g ai/ha) | Foxtail, Giant plant response rating ([10]; 500 g ai/ha) | Barnyardgrass plant response rating ([11]; 125 g ai/ha) | Barnyardgrass plant response rating ([11]; 500 g ai/ha) | Kochia plant response rating (kochia (Kochia scoparia) [12]; 125 g ai/ha) | Kochia plant response rating (kochia (Kochia scoparia) [12]; 500 g ai/ha) | other results |
| --- | --- | --- | --- | --- | --- | --- | --- | --- | --- | --- | --- | --- | --- | --- | --- | --- | --- | --- | --- | --- | --- |
| CC1=[N+]([O-])C(C(=O)Nc2cccc(F)c2F)C(c2cc(C)cc(CF)c2)C1 (racemic) [Compound 108] | 90 | 0 | 90 | 20 | 0 | 0 | 30 | 70 | 50 | 70 | 60 | 90 | 40 | 70 | 70 | 90 | 70 | 80 | 0 | 20 | Barnyardgrass plant response rating (0 to 100 scale) ([1]; 500 g ai/ha): 100; Ryegrass, Italian plant response rating (0 to 100 scale) ([2]; 500 g ai/ha): 90; Foxtail, Giant plant response rating (0 to 100 scale) ([3]; 500 g ai/ha): 100; Kochia plant response rating (0 to 100 scale) (kochia (Kochia scoparia) [4]; 500 g ai/ha): 90; Ragweed plant response rating (0 to 100 scale) ([5]; 500 g ai/ha): 70; Pigweed plant response rating (0 to 100 scale) ([6]; 500 g ai/ha): 70; Ragweed plant response rating ([13]; 125 g ai/ha): 30; Ragweed plant response rating ([13]; 500 g ai/ha): 50; Blackgrass plant response rating ([14]; 125 g ai/ha): 90; Blackgrass plant response rating ([14]; 500 g ai/ha): 90; Pigweed plant response rating ([15]; 125 g ai/ha): 0; Pigweed plant response rating ([15]; 500 g ai/ha): 20; Barnyardgrass plant response rating (0 to 100 scale) [16]: 0; Ducksalad plant response rating (0 to 100 scale) [17]: 0 |
| COc1cc(C2CC(C)=[N+]([O-])C2C(=O)Nc2cccc(F)c2F)cc(C)n1 (racemic) [Compound 57] | 90 | 0 | 90 | 60 | 0 | 0 | 20 | 90 | 30 | 40 | 60 | 90 | 40 | 90 | 40 | 90 | 80 | 80 | 0 | 30 | Barnyardgrass plant response rating (0 to 100 scale) ([1]; 500 g ai/ha): 100; Ryegrass, Italian plant response rating (0 to 100 scale) ([2]; 125 g ai/ha): 20; Ryegrass, Italian plant response rating (0 to 100 scale) ([2]; 500 g ai/ha): 90; Foxtail, Giant plant response rating (0 to 100 scale) ([3]; 500 g ai/ha): 100; Kochia plant response rating (0 to 100 scale) (kochia (Kochia scoparia) [4]; 500 g ai/ha): 60; Ragweed plant response rating (0 to 100 scale) ([5]; 500 g ai/ha): 30; Pigweed plant response rating (0 to 100 scale) ([6]; 500 g ai/ha): 20; Ragweed plant response rating ([13]; 125 g ai/ha): 0; Ragweed plant response rating ([13]; 500 g ai/ha): 0; Blackgrass plant response rating ([14]; 125 g ai/ha): 80; Blackgrass plant response rating ([14]; 500 g ai/ha): 90; Pigweed plant response rating ([15]; 125 g ai/ha): 0; Pigweed plant response rating ([15]; 500 g ai/ha): 0; Barnyardgrass plant response rating (0 to 100 scale) [16]: 55; Ducksalad plant response rating (0 to 100 scale) [17]: 0 |
| CC1=[N+]([O-])C(C)(C(=O)Nc2cccc(F)c2F)C(c2ccc(C(F)(F)F)cc2)C1 (racemic) [Compound 1] | 90 | 50 | 100 | 70 | 0 | 20 | 30 | 70 | 80 | 80 | 0 | 70 | 0 | 20 | 0 | 80 | 70 | 90 | 0 | 70 | Barnyardgrass plant response rating ([1]; 500 g ai/ha, 0 to 100 scale): 100; Ryegrass, Italian plant response rating (0 to 100 scale) ([2]; 125 g ai/ha): 0; Ryegrass, Italian plant response rating ([2]; 500 g ai/ha, 0 to 100 scale): 60; Foxtail, Giant plant response rating ([3]; 500 g ai/ha, 0 to 100 scale): 100; Kochia plant response rating (kochia (Kochia scoparia) [4]; 500 g ai/ha, 0 to 100 scale): 90; Ragweed plant response rating ([5]; 500 g ai/ha, 0 to 100 scale): 30; Pigweed plant response rating ([6]; 500 g ai/ha, 0 to 100 scale): 80; Ragweed plant response rating ([13]; 125 g ai/ha): 0; Ragweed plant response rating ([13]; 500 g ai/ha): 30; Blackgrass plant response rating ([14]; 125 g ai/ha): 20; Blackgrass plant response rating ([14]; 500 g ai/ha): 70; Pigweed plant response rating ([15]; 125 g ai/ha): 20; Pigweed plant response rating ([15]; 500 g ai/ha): 60; Barnyardgrass plant response rating (0 to 100 scale) [16]: 70; Ducksalad plant response rating (0 to 100 scale) [17]: 70 |
| CC1=[N+]([O-])C(C(=O)Nc2cccc(F)c2F)C(c2ccc(C(F)(F)F)nc2)C1 (racemic) [Compound 60] | 90 | 0 | 90 | 10 | 0 | 50 | 20 | 70 | 20 | 60 | 20 | 60 | 0 | 40 | 70 | 90 | 40 | 90 | 0 | 10 | Barnyardgrass plant response rating (0 to 100 scale) ([1]; 500 g ai/ha): 100; Ryegrass, Italian plant response rating (0 to 100 scale) ([2]; 125 g ai/ha): 10; Ryegrass, Italian plant response rating (0 to 100 scale) ([2]; 500 g ai/ha): 70; Foxtail, Giant plant response rating (0 to 100 scale) ([3]; 500 g ai/ha): 100; Kochia plant response rating (0 to 100 scale) (kochia (Kochia scoparia) [4]; 500 g ai/ha): 80; Ragweed plant response rating (0 to 100 scale) ([5]; 500 g ai/ha): 90; Pigweed plant response rating (0 to 100 scale) ([6]; 500 g ai/ha): 80; Ragweed plant response rating ([13]; 125 g ai/ha): 0; Ragweed plant response rating ([13]; 500 g ai/ha): 40; Blackgrass plant response rating ([14]; 125 g ai/ha): 10; Blackgrass plant response rating ([14]; 500 g ai/ha): 70; Pigweed plant response rating ([15]; 125 g ai/ha): 0; Pigweed plant response rating ([15]; 500 g ai/ha): 10; Barnyardgrass plant response rating (0 to 100 scale) [16]: 40; Ducksalad plant response rating (0 to 100 scale) [17]: 0 |
